What follows are molecules tested against T1, cloned human CRTH2 receptor (Homo sapiens, UniProt Q9Y5Y4) (assay: radioligand membrane binding assay: inhibition of [3H] PGD2 binding, Scintillation Proximity Assay). Conditions: [3H] PGD2 binding to membranes of HEK-293 cells expressing human CRTH2; SPA.
T1 construct: purchased Biosignal; host or cells: HEK-293 cells stably expressing human CRTH2 and G alpha 16
T1 sequence (Q9Y5Y4 1-395): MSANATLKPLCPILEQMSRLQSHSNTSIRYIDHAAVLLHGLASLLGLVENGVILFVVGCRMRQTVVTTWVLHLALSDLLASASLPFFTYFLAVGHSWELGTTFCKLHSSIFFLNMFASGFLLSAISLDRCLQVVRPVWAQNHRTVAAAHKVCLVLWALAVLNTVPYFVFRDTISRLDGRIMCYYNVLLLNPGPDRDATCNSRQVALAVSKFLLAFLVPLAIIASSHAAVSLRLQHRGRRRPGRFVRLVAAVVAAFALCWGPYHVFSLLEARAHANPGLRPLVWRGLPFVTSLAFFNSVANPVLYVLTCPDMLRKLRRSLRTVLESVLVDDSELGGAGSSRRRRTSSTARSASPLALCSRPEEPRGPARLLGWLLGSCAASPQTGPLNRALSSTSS
Description: This radioligand membrane binding assay evaluates the ability of compounds to inhibit [^3H] Prostaglandin D2 (PGD2) binding to the cloned human CRTH2 receptor stably expressed in HEK-293 cells (expressing human CRTh2 receptor and α subunit or the heterotrimeric G protein 16 were prepared by Biosignal Company) using Scintillation Proximity Assay.
A binding buffer containing 50 mM Tris-HCl (pH 7.5), 5 mM MgCl2 and 1 mM EDTA is prepared immediately prior to performing the assay. A bead/membrane solution at twice the final assay concentration comprising membranes (membranes bought from Biosignal) from the HEK-293 cells cloned to express CRTH2 receptor bound to and [^3H] PGD2 at two times the final assay concentration are prepared and stored on ice before adding to wells. Cold PGD2 at twenty times the final assay concentration is prepared and stored on ice before adding to wells defining non-specific binding (NSB) coming plates #3653 are used for this assay.
10 mM stock concentrations of compounds in 100% DMSO are prepared and stored at room temperature. A 10 point concentration response curve is then constructed for each compound, starting at 10 μM (final assay concentration). The compounds are prepared at 40 times final assay concentrations with nine consequent-3-fold dilutions.
0.1 μl of each concentration of compound are added to the appropriate well of the 384 plate and 2 μl of cold PGD2 is added into the wells defining NSB. 20 μl of [3H] PGD2 and then 20 μl of 2× of bead/membrane solution are then added to each well.
The plates are allowed to incubate at room temperature for approximately 2 hours and then counted on Packard Topcount using SPA tritium protocol for 1 minute/well.
The percent inhibition of PGD2 binding (PGD2 used at the KD value or lower) to the HEK-293 cell membranes is determined, the assay is always run as duplicate for n=1 for a total of n=2 and shown below.

Ki [µM]	Structure (SMILES)
< 10	CCN(C(=O)[C@H]1C[C@H](C)N(C(=O)Cc2ccc(OC)cc2)c2ccccc21)c1ccc(Cl)cc1 (racemic) [Compound 2, (±)-trans-1-[2-(4-Methoxy-phenyl)-acetyl]-2-methyl-1,2,3,4-tetrahydro-quinoline-4-carboxylic acid (4-chloro-phenyl)-ethyl-amide]
< 10	CCN(Cc1ccc(Cl)cc1)C(=O)[C@H]1C[C@H](C)N(C(=O)c2ccc(OC)cc2)c2ccccc21 (racemic) [Compound 5, (±)-trans-1-(4-Methoxy-benzoyl)-2-methyl-1,2,3,4-tetrahydro-quinoline-4-carboxylic acid (4-chloro-benzyl)-ethyl-amide]
< 10	CCN(C(=O)[C@H]1C[C@H](C)N(C(=O)c2ccc(OC)cc2)c2ccccc21)c1ccc(Cl)c(C(F)(F)F)c1 (racemic) [Compound 11, (±)-trans-1-(4-Methoxy-benzoyl)-2-methyl-1,2,3,4-tetrahydro-quinoline-4-carboxylic acid (4-chloro-3-trifluoromethyl-phenyl)-ethyl-amide]
< 10	CCN(C(=O)[C@H]1C[C@H](C)N(C(=O)c2ccc(OC)cc2)c2ccccc21)c1ccc(C(C)C)cc1 (racemic) [Compound 15, (±)-trans-1-(4-Methoxy-benzoyl)-2-methyl-1,2,3,4-tetrahydro-quinoline-4-carboxylic acid ethyl-(4-isopropyl-phenyl)-amide]
< 10	CCN(C(=O)C1CCN(C(=O)c2ccc(OC)cc2)c2ccccc21)c1ccc(Cl)cc1 (racemic) [Compound 33, (±)-1-(4-Methoxy-benzoyl)-1,2,3,4-tetrahydro-quinoline-4-carboxylic acid (4-chloro-phenyl)-ethyl-amide]
< 10	CCN(C(=O)[C@H]1C[C@H](C)N(C(=O)c2ccc(OC)cc2)c2ccccc21)c1cc(C)on1 (racemic) [Compound 35, (±)-trans-1-(4-Methoxy-benzoyl)-2-methyl-1,2,3,4-tetrahydro-quinoline-4-carboxylic acid ethyl-(5-methyl-isoxazol-3-yl)-amide]
< 10	CCN(C(=O)[C@H]1C[C@H](C)N(C(=O)c2ccc(OC)cc2)c2ccccc21)c1ccc(C)c(C(F)(F)F)c1 (racemic) [Compound 50, (±)-trans-1-(4-Methoxy-benzoyl)-2-methyl-1,2,3,4-tetrahydro-quinoline-4-carboxylic acid ethyl-(4-methyl-3-trifluoromethyl-phenyl)-amide]
< 10	CCN(C(=O)[C@H]1C[C@H](C)N(C(=O)c2ccc(OC)cc2)c2ccccc21)c1ccc(C)c(F)c1 (racemic) [Compound 57, (±)-trans-1-(4-Methoxy-benzoyl)-2-methyl-1,2,3,4-tetrahydro-quinoline-4-carboxylic acid ethyl-(3-fluoro-4-methyl-phenyl)-amide]
< 10	CCN(C(=O)[C@H]1C[C@H](C)N(C(=O)c2ccc(OC)cc2)c2ccccc21)c1ccccc1C (racemic) [Compound 61, (±)-trans-1-(4-Methoxy-benzoyl)-2-methyl-1,2,3,4-tetrahydro-quinoline-4-carboxylic acid ethyl-o-tolyl-amide]
< 10	CCN(C(=O)[C@H]1C[C@@H](C)N(C(=O)c2ccc(OCCC(C)(C)C(=O)O)cc2)c2ccccc21)c1ccc(Cl)cc1 (racemic) [Compound 76, (±)-cis-4-(4-{4-[(4-Chloro-phenyl)-ethyl-carbamoyl]-2-methyl-3,4-dihydro-2H-quinoline-1-carbonyl}-phenoxy)-2,2-dimethyl-butyric acid]
